{"source": "patent US10449200B2", "about": "“Combined inhibition of the vitamin D receptor and poly(ADP) ribose polymerase (PARP) in the treatment of cancer” (Institute for Cancer Research, priority 2014, dated 2019)", "key": {"BxPC3 cells": {"system": "BxPC3 cells", "test": "Western blot of Rad51 and γH2AX in supernatant and chromatin fractions", "format": "cell-based, human", "conditions": "gemcitabine for 18 hours", "description": "(§1) Western Blotting. BxPC3, Panc1, and CFPAC1 cells were treated with vehicle or gemcitabine (50 nM) for 18 hrs. Cells were harvested, washed in PBS and lysed in NP40 lysis buffer (1% NP40/PBS/10% glycerol) with protease and phosphatase inhibitors. Protein concentrations were determined with MicroBCA Assay (Pierce Biotechnology; 23224 and 23228) and then SDS sample buffer was added to the lysates. 40 μg of boiled lysates was separated by SDS-PAGE and then transferred onto Immobilon P membrane (Millipore; IPVH00010). Antibodies used for immunoblotting were obtained from: VDR (Epitomics; 3277-1), γH2AX (Upstate Biotechnologies, now Millipore; 05-636), Rad51 (Genetex; GTX70230, gift), p300 (Santa Cruz Biotechnologies; SC-584), and TAO1 kinase (Bethyl Labs; A300-524A)."}, "Panc1 cells [1]": {"system": "Panc1 cells", "test": "Cell viability (Cell Titer Glo) in siRNA screen", "format": "cell-based", "conditions": "Homo sapiens, PANC-1, read-out: sublethal dose (IC20)", "description": "Synthetic lethal RNAi Screen. High throughput RNAi was performed using the validated human genome-wide siRNA library version 2.0 obtained from Dharmacon. This is a SMARTPool (4 siRNAs per gene) library that targeted ^˜23,500 of the annotated genes, and has been validated to deplete mRNA by 75%. Stock siRNA was diluted in siRNA buffer (Dharmacon; B-002000-UB-100) and 10 ng of siRNA was reverse transfected into Panc1 cells seeded into white Corning 384-well plates (Fisher Scientific; 07-201-320) in quadruplicates on day 0. Briefly, diluted Dharmafect1 reagent (Dharmacon; T-2001-01) in OptiMEM (Life Technologies; 51985091) was added to the wells and allowed to complex with siRNA for 20 minutes at room temperature. Panc1 cells in 100 μl of DMEM/10% FBS media without PSK were mixed with 100 μl of transfection mix at 1000 cells/well. Plates were incubated at 37° C. with 5% CO2. […] Total viable cell number was determined by the addition of Cell Titer Glo (Promega; G7573) and relative luminescence units (RLU) were measured using an EnVision plate reader (Perkin Elmer). […] The effect of gemcitabine treatment on viability was measured based on the normalized viabilities in the drug treated and vehicle wells using Limma, Statistical significance was measured by p-values controlled for the false discovery rate (FDR) using the Benjamini-Hochberg step-up method to account for multiple testing. […]"}, "Panc1 cells [2]": {"system": "Panc1 cells", "test": "Clonogenic survival assay, gemcitabine", "format": "cell-based, human", "conditions": "for IC50: Homo sapiens", "description": "Cell culture and chemicals. Panc1, BxPC3, and CFPAC1 cells were purchased from American Type Culture Collection (ATCC) and banked in house until use. Cell lines were cultured in DMEM/10% FBS supplemented with 2 mM glutamine and 1% penicillin, streptomycin, and kanamycin (PSK) and were maintained at 37° C. in 5% CO2. Charcoal stripped (in house cell culture facility) and dialyzed FBS (Life Technologies; 509 26400-036) were used. Gemcitabine was obtained from the in house pharmacy. Rucaparib and trichostatin A were gifts.\nCell viability assays. For clonogenic assays, 1000 cells per well were seeded into 6 well plates on day 0. Cells were treated with gemcitabine at various doses on day 1 for 24 hours, Gemcitabine was washed out on day 2, and cells were allowed to grow for a subsequent 10 days before being fixed (10% methanol+10% acetic acid) and stained with crystal violet (0.4% in 20% ethanol) for colony counting and quantitation. For Rucaparib clonogenic assays, the drug was added at various doses 24 hours after cell plating, and cells were allowed to grow for a subsequent 10 days in the presence of Rucaparib. For TSA clonogenic assays, the drug was added for 4 hours prior to addition of gemcitabine or vehicle for another 18 hours before drugs were washed away, and cells were allowed to grow in drug-free medium for 10 days."}, "Panc1 cells [3]": {"system": "Panc1 cells", "test": "Immunofluorescence of DNA damage foci (phospho-γH2AX, Rad51) after gemcitabine", "format": "cell-based, human", "description": "For Immunofluorescence, cells were plated onto coverslips 24 hours pre-gemcitabine treatment. At different timepoints post gemcitabine treatment, cells were permeablized, fixed (4% paraformaldehyde) and stained. Antibodies to γH2AX (Millipore; 05-636), Rad51 (a gift), and 53BP1 were used. Alexa Fluor-conjugated (488, 555, and 647 nm) secondary antibodies (Molecular probes; A-11029, A-21428, A-21247) were used at a final concentration of 1 and nuclei counterstained with DAPI. Images were captured using a 40× or 63× high NA objective mounted on a semi-automated inverted microscope (Nikon TEi) with a charge-coupled device camera (Photometrics1394) using Nikon Elements 2.0. Exposure times for antibodies were optimized for control samples and identical exposure times used for the experimental samples. Images were quantitated and analyzed using Nikon Elements 2.0. Confocal images were taken using a Leica TCS-SP8 microscope controlled by LAS software (Leica Microsystems).\nIt was investigated if these repair pathways were abrogated after VDR knockdown by staining for foci formation by phospho-γH2AX, Rad51, and 53BP1, and measuring intensities after gemcitabine treatment (FIGS. 3, 4, and 5). BxPC3 (high VDR expression) and Panc1 (low VDR expression) cells were treated with gemcitabine (50 nM) for 2, 4, 8, and 18 hours, and fixed and stained for phospho-γH2AX, 53BP1, and Rad51. Foci quantitation included counting of nuclei with >5 foci and a separate measurement of the sum intensities of foci that were averaged for 5 separate immunofluorescence experiments."}, "VDR": {"system": "VDR", "test": "Western blot of VDR expression after gemcitabine", "format": "cell-based, human", "conditions": "gemcitabine 50 nM 18 hrs", "description": "as §1\nNext, the levels of VDR protein were compared in BxPC3, CFPAC1, and Panc1 cells to see if the amount of expression might correlate with gemcitabine sensitivity."}}}
{"smiles": "Nc1ccn([C@@H]2O[C@H](CO)[C@@H](O)C2(F)F)c(=O)n1", "note": "[gemcitabine]", "values": [{"measurement": "Rad51 and H2AX in whole cell extracts (supernatants), parental versus BxPC3 VDRkd", "setting": "BxPC3 cells", "result": "equivalent amounts"}, {"measurement": "Rad51 and phospho-γH2AX in chromatin fractions, VDRkd compared to parental BxPC3", "setting": "BxPC3 cells", "result": "very low amounts"}, {"measurement": "IC20", "setting": "Panc1 cells [1]", "result": 50, "unit": "nM"}, {"measurement": "IC50", "setting": "Panc1 cells [2]; PANC-1, Panc1, VDR knockdown (siRNA)", "result": "~18", "unit": "nM"}, {"measurement": "IC50", "setting": "Panc1 cells [2]; PANC-1, Panc1, control cells (control shRNA)", "result": "~19", "unit": "nM"}, {"measurement": "IC50", "setting": "Panc1 cells [2]; PANC-1, Panc1, control transfected", "result": "~30", "unit": "nM"}, {"measurement": "IC50", "setting": "Panc1 cells [2]; PANC-1, Panc1, p300 knockdown", "result": "~16", "unit": "nM"}, {"measurement": "IC50", "setting": "Panc1 cells [2]; PANC-1, Panc1 transfected with WT-VDR (overexpression)", "result": "~250", "unit": "nM"}, {"measurement": "IC50", "setting": "Panc1 cells [2]; PANC-1, Panc1 transfected with vector", "result": "~25", "unit": "nM"}, {"measurement": "IC50", "setting": "Panc1 cells [2]; PANC-1, Panc1 cells", "result": "~30", "unit": "nM"}, {"measurement": "cells survived (colony formation) compared to control samples treated with gemcitabine", "setting": "Panc1 cells [2]; Panc1, Chk1 siRNA, 50 nM gemcitabine 24 hours", "result": 3, "unit": "%"}, {"measurement": "cells survived (colony formation) compared to control samples treated with gemcitabine", "setting": "Panc1 cells [2]; Panc1, VDR siRNA, 50 nM gemcitabine 24 hours", "result": 8, "unit": "%"}, {"measurement": "colony formation, vehicle versus gemcitabine", "setting": "Panc1 cells [2]; Panc1, control siRNA, 50 nM gemcitabine 24 hours", "result": "did not differ significantly"}, {"measurement": "increase of gemcitabine IC50 over controls", "setting": "Panc1 cells [2]; Panc1 cells with increased VDR levels", "result": "~10", "unit": "fold"}, {"measurement": "time until Rad51 foci visible after gemcitabine", "setting": "Panc1 cells [3]; Panc1, gemcitabine 50 nM", "result": 18, "unit": "h"}, {"measurement": "time until phospho-γH2AX foci form after gemcitabine", "setting": "Panc1 cells [3]; Panc1, gemcitabine 50 nM", "result": 18, "unit": "h"}, {"measurement": "time until phospho-γH2AX and Rad51 foci after gemcitabine addition", "setting": "Panc1 cells [3]; Panc1 transfected with VDR siRNA", "result": 18, "unit": "h"}, {"measurement": "time until phospho-γH2AX and Rad51 foci after gemcitabine addition", "setting": "Panc1 cells [3]; Panc1 transfected with control", "result": "~8", "unit": "h"}, {"measurement": "VDR levels after overnight treatment with gemcitabine", "setting": "VDR; BXPC3 cells", "result": "No noticeable increase"}, {"measurement": "VDR levels after overnight treatment with gemcitabine", "setting": "VDR; CFPAC1 cells", "result": "increased"}, {"measurement": "VDR levels after overnight treatment with gemcitabine", "setting": "VDR; Panc1 cells", "result": "increased"}]}
